Literature values in publication PMC8900053, “Selumetinib in combination with dexamethasone for the treatment of relapsed/refractory RAS-pathway mutated paediatric and adult acute lymphoblastic leukaemia (SeluDex): study protocol for an international, parallel-group, dose-finding with expansion phase I/II trial” (BMJ Open, 2022).

Legend:
[1] = human, in vivo
[2] = early information from clinical studies
[3] = common side effect of selumetinib

Blood levels of selumetinib in people of Asian origin versus non-Asian subjects [2] | Chance that blurred vision may affect daily living (blurred vision mild or moderate in all reported previous cases) | Swelling of the face or extremities (patients receiving selumetinib) | Skin rash cases that can be more serious and require treatment (share of skin rash cases, majority of events are mild) | SMILES | Tolerability of pulsed dosing versus continuous dosing [1] | Being sick (people affected) [3] [%] | Diarrhoea (people affected) [3] [%] | Feeling sick (people affected) [3] [%] | Feeling tired or weak (people affected) [3] [%] | Shortness of breath (people affected) [3] [%] | Skin rash, which may be itchy (people affected) [3] [%] | Swelling of the hands or feet (people affected) [3] [%] | Tolerability (more than 3,080 people have had the drug so far)
 |  |  |  | C[C@@H]1C[C@H]2[C@@H]3CCC4=CC(=O)C=C[C@]4(C)[C@@]3(F)[C@@H](O)C[C@]2(C)[C@@]1(O)C(=O)CO [dexamethasone] | better tolerated |  |  |  |  |  |  |  | 
higher | about 5% | commonly reported | around 10% | Cn1cnc2c(F)c(Nc3ccc(Br)cc3Cl)c(C(=O)NOCCO)cc21 [selumetinib] |  | ~30 | ~50 | ~50 | ~40 | ~20 | ~70 | ~30 | very well tolerated
